According to patent publication US11020399B2, “Intermediates useful in the synthesis of compounds as modulators of protein kinases” (Rhizen Pharmaceuticals SA, priority 2011, dated 2021):

Assays:
Assay type in all cases: biochemical
[1] = target: PI3kβ (Homo sapiens, UniProt P42338); assay: Fluorescent (HTRF) determination of PI3 kinase enzyme activity, PI3Kβ; settings: 1 uM
Source text: (§1) Assay 1: Fluorescent Determination of PI3Kinase Kinase Enzyme Activity
(§2) Phosphoinositide 3 kinases (PI3K) belong to a class of lipid kinases that play a critical role in the regulation of several key cellular processes. The PI3K are capable of phosphorylating the 3-hydroxy position of phosphoinositols thereby generating second messengers involved in downstream signalling events. The homogenous time resolved fluorescence (HTRF) assay allows detection of 3,4,5-triphosphate (PIP3) formed as a result of phosphorylation of phosphotidylinositol 4,5-biphosphate (PIP2) by PI3K isoforms such as α, β, γ or δ. PI3K isoform activity for a, p, y or 8 was determined using a PI3K human HTRF™ Assay Kit (Millipore, Billerica, Mass.) with modifications. All incubations were carried out at room temperature. Briefly, 0.5 μl of 40× inhibitor (in 100% DMSO) or 100% DMSO were added to each well of a 384-well black plate (Greiner Bio-One, Monroe, N.C.) containing 14.5 μl IX reaction buffer /PIP2 (10 mM MgCl2, 5 mM DTT, 1.38 μM PIP2) mix with or without enzyme and incubated for 10 min. After the initial incubation, 5 μl/well of 400 μM ATP was added and incubated for an additional 30 minutes. Reaction was terminated by adding 5 μl/well stop solution (Millipore, Billerica, Mass.). Five microliters of detection mix (Millipore, Billerica, Mass.) were then added to each well and was incubated for 6-18 h in the dark. HRTF ratio was measured on a microplate reader (BMG Labtech., Germany) at an excitation wavelength of 337 nm and emission wavelengths of 665 and 620 nm with an integration time of 400 μsec.
(§3) Data were analyzed using Graphpad Prism (Graphpad software; San Diego Calif.) for IC50 determination. Examples 1-59 were tested at 1 uM for Pi3kα & Pi3k β and at 0.3 uM for γ and δ. Examples 60-137 were tested at 1 uM for Pi3kα & Pi3k β and at 0.1 uM for γ and δ. Percent inhibition was calculated based on the values for the blank and enzyme controls. The results are as provided in Table 2 (wherein D=0 to 25%; C=>25 to 50%; B=>50 to 75%; A=>75 to 100%; +++++=≤50 nM; ++++=>50 to ≤100 nM; +++=>100 to ≤300 nM; ++=>300 to ≤500 nM; +=>500 nM)

[2] = target: PI3kγ (Homo sapiens, UniProt P48736); assay: Fluorescent (HTRF) determination of PI3 kinase enzyme activity, PI3Kγ; settings: for inhibition at 0.3 µM: 300 nM (Examples 1-59)
Source text: as §1, §2, §3

[3] = target: PI3kα (Homo sapiens, UniProt P42336); assay: Fluorescent (HTRF) determination of PI3 kinase enzyme activity, PI3Kα; settings: 1 uM
Source text: as §1, §2, §3

[4] = target: PI3kδ (Homo sapiens, UniProt O00329); assay: Fluorescent (HTRF) determination of PI3 kinase enzyme activity, PI3Kδ; settings: for inhibition at 0.3 µM: 300 nM (Examples 1-59)
Source text: as §1, §2, §3

PI3kγ, sequence (P48736 whole entry): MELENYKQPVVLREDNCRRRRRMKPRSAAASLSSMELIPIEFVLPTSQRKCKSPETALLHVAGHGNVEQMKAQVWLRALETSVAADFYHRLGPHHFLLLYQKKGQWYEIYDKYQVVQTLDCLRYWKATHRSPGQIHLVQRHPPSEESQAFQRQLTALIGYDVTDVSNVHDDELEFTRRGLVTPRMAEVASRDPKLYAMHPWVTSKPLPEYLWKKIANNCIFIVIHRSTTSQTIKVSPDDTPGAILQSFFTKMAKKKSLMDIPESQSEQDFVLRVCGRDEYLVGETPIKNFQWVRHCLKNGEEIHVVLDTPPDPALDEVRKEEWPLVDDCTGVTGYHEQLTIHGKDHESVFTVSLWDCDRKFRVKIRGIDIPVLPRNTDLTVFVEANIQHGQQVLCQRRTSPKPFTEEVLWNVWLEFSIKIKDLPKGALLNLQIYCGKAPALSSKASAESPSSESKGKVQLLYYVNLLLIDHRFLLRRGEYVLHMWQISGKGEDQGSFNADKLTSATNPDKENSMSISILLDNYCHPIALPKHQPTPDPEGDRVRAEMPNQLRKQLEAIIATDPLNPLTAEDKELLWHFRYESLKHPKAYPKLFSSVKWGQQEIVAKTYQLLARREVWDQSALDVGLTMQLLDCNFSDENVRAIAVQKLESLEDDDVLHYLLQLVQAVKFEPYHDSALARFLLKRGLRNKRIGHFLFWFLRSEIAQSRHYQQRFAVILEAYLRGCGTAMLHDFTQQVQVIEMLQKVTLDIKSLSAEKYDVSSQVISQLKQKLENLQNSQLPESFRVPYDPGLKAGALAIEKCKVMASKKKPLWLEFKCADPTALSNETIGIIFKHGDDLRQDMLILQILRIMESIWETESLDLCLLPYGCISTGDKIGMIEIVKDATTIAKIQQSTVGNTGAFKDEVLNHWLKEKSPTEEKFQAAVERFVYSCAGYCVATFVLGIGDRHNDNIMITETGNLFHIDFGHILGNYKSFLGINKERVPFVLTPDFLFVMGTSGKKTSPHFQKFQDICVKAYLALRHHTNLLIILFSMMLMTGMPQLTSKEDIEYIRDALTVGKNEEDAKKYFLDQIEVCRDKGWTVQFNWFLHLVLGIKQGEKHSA
PI3kδ, sequence (O00329 whole entry): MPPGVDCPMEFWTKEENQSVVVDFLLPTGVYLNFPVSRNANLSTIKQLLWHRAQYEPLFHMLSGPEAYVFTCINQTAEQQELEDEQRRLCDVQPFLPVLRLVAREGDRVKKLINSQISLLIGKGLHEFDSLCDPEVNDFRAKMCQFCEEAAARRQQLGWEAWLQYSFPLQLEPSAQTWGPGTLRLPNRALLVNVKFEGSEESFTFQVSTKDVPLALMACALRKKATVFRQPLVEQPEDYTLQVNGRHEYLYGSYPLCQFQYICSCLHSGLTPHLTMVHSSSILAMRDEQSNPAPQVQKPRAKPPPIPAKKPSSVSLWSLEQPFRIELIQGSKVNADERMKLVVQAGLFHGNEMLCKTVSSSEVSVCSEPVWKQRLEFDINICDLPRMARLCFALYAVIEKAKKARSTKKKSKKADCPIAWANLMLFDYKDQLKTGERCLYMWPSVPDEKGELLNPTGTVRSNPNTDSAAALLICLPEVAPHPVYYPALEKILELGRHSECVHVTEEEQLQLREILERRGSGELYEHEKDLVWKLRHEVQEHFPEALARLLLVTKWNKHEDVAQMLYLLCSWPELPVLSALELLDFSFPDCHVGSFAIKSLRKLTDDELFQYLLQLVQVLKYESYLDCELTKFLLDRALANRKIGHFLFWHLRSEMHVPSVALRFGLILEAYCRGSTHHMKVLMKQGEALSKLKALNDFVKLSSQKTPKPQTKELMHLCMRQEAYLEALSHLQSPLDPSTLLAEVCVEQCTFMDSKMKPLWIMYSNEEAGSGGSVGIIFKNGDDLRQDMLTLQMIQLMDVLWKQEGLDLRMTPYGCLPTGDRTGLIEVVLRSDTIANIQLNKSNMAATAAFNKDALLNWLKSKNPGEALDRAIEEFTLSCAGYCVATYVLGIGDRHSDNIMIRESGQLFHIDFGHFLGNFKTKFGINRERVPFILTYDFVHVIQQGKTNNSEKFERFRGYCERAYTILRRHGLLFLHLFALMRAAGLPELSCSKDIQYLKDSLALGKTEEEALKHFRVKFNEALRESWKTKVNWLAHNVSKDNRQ
PI3kδ, sequence (P27986 whole entry partner): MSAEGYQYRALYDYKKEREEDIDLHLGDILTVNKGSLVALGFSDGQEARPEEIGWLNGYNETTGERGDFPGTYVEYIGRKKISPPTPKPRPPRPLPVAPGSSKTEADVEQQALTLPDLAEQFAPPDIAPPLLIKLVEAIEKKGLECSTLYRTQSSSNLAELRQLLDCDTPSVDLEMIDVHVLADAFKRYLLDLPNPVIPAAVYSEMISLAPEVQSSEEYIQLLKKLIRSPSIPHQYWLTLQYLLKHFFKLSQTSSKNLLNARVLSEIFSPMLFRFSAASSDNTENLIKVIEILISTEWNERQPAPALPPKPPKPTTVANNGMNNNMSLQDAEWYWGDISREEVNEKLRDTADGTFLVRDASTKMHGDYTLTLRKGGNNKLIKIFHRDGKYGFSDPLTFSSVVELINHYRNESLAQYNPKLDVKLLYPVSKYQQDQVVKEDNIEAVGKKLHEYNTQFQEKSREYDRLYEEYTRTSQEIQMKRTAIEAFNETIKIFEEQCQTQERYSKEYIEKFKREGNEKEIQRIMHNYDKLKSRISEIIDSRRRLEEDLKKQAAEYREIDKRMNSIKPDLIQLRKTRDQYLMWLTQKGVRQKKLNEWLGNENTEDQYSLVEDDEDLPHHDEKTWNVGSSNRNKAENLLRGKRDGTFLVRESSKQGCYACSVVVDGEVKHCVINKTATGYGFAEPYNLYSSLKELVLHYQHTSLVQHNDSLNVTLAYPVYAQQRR
PI3kα, sequence (P42336 whole entry): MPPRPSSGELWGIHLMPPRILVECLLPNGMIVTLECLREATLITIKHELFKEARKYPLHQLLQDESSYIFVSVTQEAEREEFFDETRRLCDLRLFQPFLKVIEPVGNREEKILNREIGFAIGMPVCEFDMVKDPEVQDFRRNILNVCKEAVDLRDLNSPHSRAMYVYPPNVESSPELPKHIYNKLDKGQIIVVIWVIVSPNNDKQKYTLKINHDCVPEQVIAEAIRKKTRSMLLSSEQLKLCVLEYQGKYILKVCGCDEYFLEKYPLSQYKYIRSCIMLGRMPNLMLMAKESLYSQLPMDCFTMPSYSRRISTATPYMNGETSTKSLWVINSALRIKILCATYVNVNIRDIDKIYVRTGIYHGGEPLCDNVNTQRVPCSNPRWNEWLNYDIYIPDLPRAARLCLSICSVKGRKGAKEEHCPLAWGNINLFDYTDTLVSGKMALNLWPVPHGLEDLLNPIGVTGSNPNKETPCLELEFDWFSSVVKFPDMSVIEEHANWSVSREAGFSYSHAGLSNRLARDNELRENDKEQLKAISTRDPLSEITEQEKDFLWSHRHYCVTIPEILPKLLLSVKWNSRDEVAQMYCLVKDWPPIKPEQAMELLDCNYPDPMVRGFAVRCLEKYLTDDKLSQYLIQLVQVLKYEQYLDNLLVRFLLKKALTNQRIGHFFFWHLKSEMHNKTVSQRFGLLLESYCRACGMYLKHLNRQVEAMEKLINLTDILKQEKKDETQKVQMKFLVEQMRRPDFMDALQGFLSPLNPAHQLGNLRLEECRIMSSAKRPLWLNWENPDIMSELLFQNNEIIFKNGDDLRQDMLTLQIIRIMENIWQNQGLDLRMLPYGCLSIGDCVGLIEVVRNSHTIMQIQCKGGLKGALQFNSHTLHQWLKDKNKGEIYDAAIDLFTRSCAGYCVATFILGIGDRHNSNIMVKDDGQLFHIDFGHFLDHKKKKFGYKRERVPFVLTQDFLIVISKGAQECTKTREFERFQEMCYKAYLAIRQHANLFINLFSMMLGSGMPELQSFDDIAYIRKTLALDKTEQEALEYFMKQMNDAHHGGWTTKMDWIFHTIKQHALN
PI3kα, sequence (P27986 whole entry partner): as the sequence (P27986 whole entry partner) above
PI3kβ, sequence (P42338 whole entry): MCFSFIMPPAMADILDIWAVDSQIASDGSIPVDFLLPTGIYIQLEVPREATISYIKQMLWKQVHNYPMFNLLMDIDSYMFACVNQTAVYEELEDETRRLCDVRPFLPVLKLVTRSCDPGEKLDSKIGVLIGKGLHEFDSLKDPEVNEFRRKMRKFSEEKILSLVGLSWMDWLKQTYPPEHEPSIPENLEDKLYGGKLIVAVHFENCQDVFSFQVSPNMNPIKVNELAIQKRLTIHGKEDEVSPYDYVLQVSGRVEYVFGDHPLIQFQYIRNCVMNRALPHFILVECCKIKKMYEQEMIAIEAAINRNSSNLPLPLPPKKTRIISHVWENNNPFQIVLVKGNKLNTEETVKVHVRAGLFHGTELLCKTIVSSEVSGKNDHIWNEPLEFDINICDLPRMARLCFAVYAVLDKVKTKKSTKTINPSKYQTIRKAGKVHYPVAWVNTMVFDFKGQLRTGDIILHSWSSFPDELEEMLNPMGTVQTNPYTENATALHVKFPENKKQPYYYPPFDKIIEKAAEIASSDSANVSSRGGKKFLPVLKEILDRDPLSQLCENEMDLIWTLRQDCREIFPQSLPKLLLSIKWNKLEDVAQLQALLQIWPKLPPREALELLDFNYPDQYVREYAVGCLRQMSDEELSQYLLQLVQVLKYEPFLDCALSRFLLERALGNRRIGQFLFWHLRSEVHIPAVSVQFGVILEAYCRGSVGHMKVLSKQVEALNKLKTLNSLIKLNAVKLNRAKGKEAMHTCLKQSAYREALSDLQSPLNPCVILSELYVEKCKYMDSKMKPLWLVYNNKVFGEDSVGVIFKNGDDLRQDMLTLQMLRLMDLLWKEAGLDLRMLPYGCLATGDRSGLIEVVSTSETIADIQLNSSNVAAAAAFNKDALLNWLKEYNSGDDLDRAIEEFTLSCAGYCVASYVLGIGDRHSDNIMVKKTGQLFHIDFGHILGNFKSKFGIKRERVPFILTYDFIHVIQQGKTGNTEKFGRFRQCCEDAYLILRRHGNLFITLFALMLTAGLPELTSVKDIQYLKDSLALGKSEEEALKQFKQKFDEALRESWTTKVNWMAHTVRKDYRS
PI3kβ, sequence (P27986 whole entry partner): as the sequence (P27986 whole entry partner) above

Row | inhibition at 1 µM [1] | inhibition at 0.3 µM [2] | inhibition at 1 µM [3] | inhibition at 0.3 µM [4] | % inhibition (PI3kβ) 1 uM [1] | IC50 [2] | % inhibition (PI3kα) 1 uM [3] | IC50 [4] | Structure (SMILES)
1 | 50 to 75% | 25 to 50% | 50 to 75% | 50 to 75% | – | – | – | – | CC(c1oc2cccc(F)c2c(=O)c1-c1cccc(F)c1)n1cnc2c(N)ncnc21 (stereo not shown) [Example 11, 2-(1-(6-amino-9H-purin-9-yl)ethyl)-5-fluoro-3-(3-fluorophenyl)-4H-chromen-4-one]
2 | – | 75 to 100% | – | 25 to 50% | C (C=>25 to 50%) | 100 to 300 nM | D (D=0 to 25%) | – | CC(C)Oc1ccc(-c2nn(C(C)c3oc4cccc(F)c4c(=O)c3-c3ccc(F)cc3)c3ncnc(N)c23)cc1F (stereo not shown) [Example 12, 2-(1-(4-amino-3-(3-fluoro-4-isopropoxyphenyl)-1H-pyrazolo[3,4-d]pyrimidin-1-yl)ethyl)-5-fluoro-3-(4-fluorophenyl)-4H-chromen-4-one]
3 | – | 50 to 75% | – | 75 to 100% | D (D=0 to 25%) | – | D (D=0 to 25%) | ≤ 50 nM | CC(C)Oc1ccc(-c2nn(C(C)c3oc4cccc(F)c4c(=O)c3-c3ccccc3)c3ncnc(N)c23)cc1F (stereo not shown) [Example 13, 2-(1-(4-amino-3-(3-fluoro-4-isopropoxyphenyl)-1H-pyrazolo[3,4-d]pyrimidin-1-yl)ethyl)-5-fluoro-3-phenyl-4H-chromen-4-one]
4 | 0 to 25% | 75 to 100% | 25 to 50% | 75 to 100% | – | 50 to 100 nM | – | 50 to 100 nM | CC(c1oc2cccc(F)c2c(=O)c1-c1cccc(F)c1)n1nc(-c2cc3ccccc3o2)c2c(N)ncnc21 (stereo not shown) [Example 14, 2-(1-(4-amino-3-(benzofuran-2-yl)-1H-pyrazolo[3,4-d]pyrimidin-1-yl)ethyl)-5-fluoro-3-(3-fluorophenyl)-4H-chromen-4-one]
5 | 0 to 25% | 0 to 25% | 25 to 50% | 75 to 100% | – | – | – | 50 to 100 nM | CC(c1oc2cccc(F)c2c(=O)c1-c1cccc(F)c1)n1ncc2c(N)ncnc21 (stereo not shown) [Example 16, 2-(1-(4-amino-1H-pyrazolo[3,4-d]pyrimidin-1-yl)ethyl)-5-fluoro-3-(3-fluorophenyl)-4H-chromen-4-one]
6 | 25 to 50% | 25 to 50% | 0 to 25% | 75 to 100% | – | – | – | – | CC(c1oc2cccc(F)c2c(=O)c1-c1cccc(F)c1)n1nc(-c2ccc(OC(F)F)c(F)c2)c2c(N)ncnc21 (stereo not shown) [Example 17, 2-(1-(4-amino-3-(4-(difluoromethoxy)-3-fluorophenyl)-1H-pyrazolo[3,4-d]pyrimidin-1-yl)ethyl)-5-fluoro-3-(3-fluorophenyl)-4H-chromen-4-one]
7 | 0 to 25% | 50 to 75% | 0 to 25% | 75 to 100% | – | – | – | 50 to 100 nM | CC(C)Oc1ccc(-c2nn(C(C)c3oc4cccc(F)c4c(=O)c3-c3cn[nH]c3)c3ncnc(N)c23)cc1F (stereo not shown) [Example 18, 2-(1-(4-amino-3-(3-fluoro-4-isopropoxyphenyl)-1H-pyrazolo[3,4-d]pyrimidin-1-yl)ethyl)-5-fluoro-3-(1H-pyrazol-4-yl)-4H-chromen-4-one]
8 | 25 to 50% | 75 to 100% | 25 to 50% | 50 to 75% | – | – | – | – | CC(c1oc2cccc(F)c2c(=O)c1-c1cccc(F)c1)n1nc(-c2ccc(OC3CCOCC3)c(F)c2)c2c(N)ncnc21 (stereo not shown) [Example 19, 2-(1-(4-amino-3-(3-fluoro-4-(tetrahydro-2H-pyran-4-yloxy)phenyl)-1H-pyrazolo[3,4-d]pyrimidin-1-yl)ethyl)-5-fluoro-3-(3-fluorophenyl)-4H-chromen-4-one]
9 | 25 to 50% | 0 to 25% | 0 to 25% | 75 to 100% | – | – | – | 50 to 100 nM | CC(C)c1n[nH]c2cc(-c3nn(C(C)c4oc5cccc(F)c5c(=O)c4-c4cccc(F)c4)c4ncnc(N)c34)ccc12 (stereo not shown) [Example 20, 2-(1-(4-amino-3-(3-isopropyl-1H-indazol-6-yl)-1H-pyrazolo[3,4-d]pyrimidin-1-yl)ethyl)-5-fluoro-3-(3-fluorophenyl)-4H-chromen-4-one]
10 | 0 to 25% | 25 to 50% | 25 to 50% | 75 to 100% | – | – | – | – | CC(c1oc2cccc(F)c2c(=O)c1-c1cccc(F)c1)n1nc(-c2ccc(NCCO)c(F)c2)c2c(N)ncnc21 (stereo not shown) [Example 22, 2-(1-(4-amino-3-(3-fluoro-4-(2-hydroxyethylamino)phenyl)-1H-pyrazolo[3,4-d]pyrimidin-1-yl)ethyl)-5-fluoro-3-(3-fluorophenyl)-4H-chromen-4-one]
11 | 25 to 50% | 75 to 100% | 0 to 25% | 75 to 100% | – | ≤ 50 nM | – | 50 to 100 nM | CC(C)Nc1ccc(-c2nn(C(C)c3oc4cccc(F)c4c(=O)c3-c3cccc(F)c3)c3ncnc(N)c23)cc1F (stereo not shown) [Example 23, 2-(1-(4-amino-3-(3-fluoro-4-(isopropylamino)phenyl)-1H-pyrazolo[3,4-d]pyrimidin-1-yl)ethyl)-5-fluoro-3-(3-fluorophenyl)-4H-chromen-4-one]
12 | 25 to 50% | 50 to 75% | 0 to 25% | 25 to 50% | – | – | – | – | CC(c1oc2cccc(F)c2c(=O)c1-c1cccc(F)c1)n1nc(-c2ccc(N3CCN(C)CC3)c(F)c2)c2c(N)ncnc21 (stereo not shown) [Example 27, 2-(1-(4-amino-3-(3-fluoro-4-(4-methylpiperazin-1-yl)phenyl)-1H-pyrazolo[3,4-d]pyrimidin-1-yl)ethyl)-5-fluoro-3-(3-fluorophenyl)-4H-chromen-4-one]
13 | 25 to 50% | 50 to 75% | 0 to 25% | 50 to 75% | – | – | – | – | CC(c1oc2cccc(F)c2c(=O)c1-c1cccc(F)c1)n1ncc2c(N(C)C)ncnc21 (stereo not shown) [Example 28, 2-(1-(4-(dimethylamino)-1H-pyrazolo[3,4-d]pyrimidin-1-yl)ethyl)-5-fluoro-3-(3-fluorophenyl)-4H-chromen-4-one]
14 | 25 to 50% | 50 to 75% | 0 to 25% | 25 to 50% | – | – | – | – | CC(c1oc2cccc(F)c2c(=O)c1-c1ccccc1)n1ncc2c(N)ncnc21 (stereo not shown) [Example 29, 2-(1-(4-amino-1H-pyrazolo[3,4-d]pyrimidin-1-yl)ethyl)-5-fluoro-3-phenyl-4H-chromen-4-one]
15 | 0 to 25% | 0 to 25% | 25 to 50% | 25 to 50% | – | – | – | – | CC(c1oc2cccc(F)c2c(=O)c1-c1ccc(F)cc1)n1ncc2c(N)ncnc21 (stereo not shown) [Example 30, 2-(1-(4-amino-1H-pyrazolo[3,4-d]pyrimidin-1-yl)ethyl)-5-fluoro-3-(4-fluorophenyl)-4H-chromen-4-one]
16 | 25 to 50% | 50 to 75% | 25 to 50% | 50 to 75% | – | – | – | – | CC(c1oc2cccc(F)c2c(=O)c1-c1ccc(F)cc1)n1nc(-c2ccc(OC(F)F)c(F)c2)c2c(N)ncnc21 (stereo not shown) [Example 31, 2-(1-(4-amino-3-(4-(difluoromethoxy)-3-fluorophenyl)-1H-pyrazolo[3,4-d]pyrimidin-1-yl)ethyl)-5-fluoro-3-(4-fluorophenyl)-4H-chromen-4-one]
